Converted amounts (≈) assume the structure as drawn. Like-named read-outs stand apart in the source and are kept apart here.

From paper PMC9017309, “Triazolopyrimidines Target Aerobic Respiration in Mycobacterium tuberculosis” (Antimicrobial Agents and Chemotherapy, 2022) come the findings set out here.

The test system of experiment [1] is M. tuberculosis H37Rv-LP QcrB A396T. Type of experiment: cell-based, Mycobacterium tuberculosis.
Experiment [2] deals with M. tuberculosis H37Rv ATCC 26518 QcrBM342T. Format: cell-based, Mycobacterium tuberculosis.
The test system of experiment [3] is M. tuberculosis resistant isolates LP-0497553-RM. Briefly: microbe, parasite or virus in culture. Type of experiment: cell-based, Mycobacterium tuberculosis. The note with it: for MIC: Mycobacterium tuberculosis, 504 h, 24-well agar plates, 3 weeks.
Experiment [4] deals with M. tuberculosis H37Rv ATCC 27294 cydKO. Nature of the experiment: microbe, parasite or virus in culture. Type of experiment: cell-based. The note with it: Mycobacterium tuberculosis, 120 h, read-out: MIC, H37Rv ATCC 27294 cydKO.
The test system of experiment [5] is M. tuberculosis H37Rv ATCC 26518 QcrBT313I. Format: cell-based, Mycobacterium tuberculosis.
Experiment [6] relates to M. tuberculosis H37Rv-LP MmpL3 F255L. Format: cell-based, Mycobacterium tuberculosis.
Experiment [7] deals with M. tuberculosis H37Rv-LP DprE1 C387S. Format: cell-based, Mycobacterium tuberculosis.
The test system of experiment [8] is M. tuberculosis resistant isolates LP-0499227-RM. Format: cell-based, Mycobacterium tuberculosis.

`COc1ccc(CCNc2cc(-c3ccccn3)nc3ncnn23)cc1` [TPN-0006239]: in experiment [1], the “MIC, QcrB A396T” value came out at 3.4 ± 0.28 µM (≈ 1.18 µg/mL). The “MIC, H37Rv ATCC 26518 QcrBM342T” value in experiment [2] worked out at 11 µM (≈ 3.81 µg/mL). Moreover, in experiment [3], the “MIC on solid medium, LP-0497553-RM1” value worked out at 25 µM (≈ 8.66 µg/mL); the “MIC on solid medium, LP-0497553-RM2” value worked out at 25 µM (≈ 8.66 µg/mL); the “MIC on solid medium, LP-0497553-RM4” value is 50 µM (≈ 17.3 µg/mL); the “MIC on solid medium, LP-0497553-RM5” value was 50 µM (≈ 17.3 µg/mL). In experiment [3], the “MIC on solid medium, LP-0497553-RM10” value amounted to 50 µM (≈ 17.3 µg/mL); the “MIC on solid medium, LP-0497553-RM11” value was found to be 50 µM (≈ 17.3 µg/mL); the “MIC on solid medium, LP-0497553-RM15” value stood at 50 µM (≈ 17.3 µg/mL). Moreover, the MIC in experiment [3] (read-out: MIC on solid medium, LP-0497553-RM14) turned out to be 50 µM (≈ 17.3 µg/mL). Besides, in experiment [3] (read-out: MIC on solid medium, LP-0497553-RM23), the MIC amounted to 50 µM (≈ 17.3 µg/mL). The MIC in experiment [4] was determined as 0.13 ± 0.007 µM (≈ 0.045 µg/mL). The “MIC, H37Rv ATCC 26518 QcrBT313I” value in experiment [5] was more than 20 µM. The “MIC, MmpL3 F255L” value in experiment [6] was determined as 0.86 ± 0.21 µM (≈ 0.298 µg/mL). Besides, the “MIC, DprE1 C387S” value in experiment [7] was 0.42 ± 0.07 µM (≈ 0.145 µg/mL).

With `COc1ccc(CCNc2cc(-c3ccccc3)nc3ncnn23)cc1` [TPN-0006218], the “MIC, QcrB A396T” value in experiment [1] worked out at 6.8 ± 2.8 µM (≈ 2.35 µg/mL). Besides, the “MIC, MmpL3 F255L” value in experiment [6] was determined as 2 ± 0.99 µM (≈ 0.691 µg/mL). The “MIC, DprE1 C387S” value in experiment [7] was 0.94 ± 0.67 µM (≈ 0.325 µg/mL).

Consider `FC(F)(F)c1ccc(CCNc2cc(-c3ccccc3)nc3ncnn23)cc1` [TPN-0006243], for which the “MIC, QcrB A396T” value in experiment [1] is 5.7 ± 2.1 µM (≈ 2.19 µg/mL). For the same compound, in experiment [2], the “MIC, H37Rv ATCC 26518 QcrBM342T” value was more than 20 µM. Besides, the MIC in experiment [4] was less than 0.39 µM. Further, the “MIC, H37Rv ATCC 26518 QcrBT313I” value in experiment [5] is more than 20 µM. For the same compound, the “MIC, MmpL3 F255L” value in experiment [6] amounted to 2.7 ± 2.4 µM (≈ 1.04 µg/mL). The “MIC, DprE1 C387S” value in experiment [7] was found to be 0.95 ± 0.29 µM (≈ 0.364 µg/mL).

On to `FC(F)(F)c1ccc(CCNc2cc(-c3ccccn3)nc3ncnn23)cc1` [TPN-0006267], for which the “MIC, QcrB A396T” value in experiment [1] turned out to be 5.9 ± 3.5 µM (≈ 2.27 µg/mL). The “MIC, H37Rv ATCC 26518 QcrBM342T” value in experiment [2] was found to be 10 µM (≈ 3.84 µg/mL). Also, the “MIC, H37Rv ATCC 26518 QcrBT313I” value in experiment [5] was more than 20 µM. Moreover, the “MIC, MmpL3 F255L” value in experiment [6] amounted to 1.8 ± 0.57 µM (≈ 0.692 µg/mL). In experiment [8], the “MIC on solid medium, LP-0499227-RM1” value is more than 100 µM; the “MIC on solid medium, LP-0499227-RM2” value was more than 100 µM; the “MIC on solid medium, LP-0499227-RM3” value is more than 100 µM; the “MIC on solid medium, LP-0499227-RM4” value worked out at 25 µM (≈ 9.61 µg/mL). Moreover, the “MIC on solid medium, LP-0499227-RM7” value in experiment [8] was more than 100 µM. Further, in experiment [7], the “MIC, DprE1 C387S” value stood at 0.66 ± 0.01 µM (≈ 0.254 µg/mL).

As for `Cc1ccc(CCNc2cc(-c3ccccc3)nc3ncnn23)cc1` [TPN-0006245], the “MIC, QcrB A396T” value in experiment [1] is 5.6 ± 2.5 µM (≈ 1.84 µg/mL). Moreover, the “MIC, H37Rv ATCC 26518 QcrBM342T” value in experiment [2] is more than 20 µM. Also, the “MIC, H37Rv ATCC 26518 QcrBT313I” value in experiment [5] is more than 20 µM. Moreover, the “MIC, MmpL3 F255L” value in experiment [6] worked out at 2 ± 0.07 µM (≈ 0.659 µg/mL). Also, the “MIC, DprE1 C387S” value in experiment [7] is 0.92 ± 0.3 µM (≈ 0.303 µg/mL).
